Data on 1 compound can be found in PMC12027730, “Lapatinib-Resistant HER2+ Breast Cancer Cells Are Associated with Dysregulation of MAPK and p70S6K/PDCD4 Pathways and Calcium Management, Influence of Cryptotanshinone” (International Journal of Molecular Sciences, 2025).

Molecules are shown by their SMILES.

The experiment concerns the target T1, eIF4AI (Homo sapiens, UniProt P60842).
T1 construct: gene EIF4A1
Kind of experiment: synchronous fluorescence quenching, eIF4A […] with Cry […]. The format is binding.

T1 sequence (P60842 2-406): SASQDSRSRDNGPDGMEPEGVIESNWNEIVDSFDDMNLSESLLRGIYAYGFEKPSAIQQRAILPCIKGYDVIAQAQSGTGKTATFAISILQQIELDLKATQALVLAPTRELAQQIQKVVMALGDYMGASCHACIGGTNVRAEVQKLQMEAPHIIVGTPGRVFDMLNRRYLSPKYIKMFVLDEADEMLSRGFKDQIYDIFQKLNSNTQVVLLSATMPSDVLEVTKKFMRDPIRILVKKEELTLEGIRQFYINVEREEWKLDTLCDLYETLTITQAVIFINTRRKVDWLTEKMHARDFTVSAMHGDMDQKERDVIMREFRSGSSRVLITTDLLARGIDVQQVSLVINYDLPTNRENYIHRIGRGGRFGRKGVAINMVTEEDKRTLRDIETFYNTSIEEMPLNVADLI

As for `C[C@H]1COC2=C1C(=O)C(=O)c1c2ccc2c1CCCC2(C)C` [Cry, Cryptotanshinone], the “synchronous fluorescence quenching, eIF4A 12 μM with Cry 0-50 μM” value is reported as “A Cry dose-dependent fluorescence emission decrease in eIF4A associated with the induction of the quenching phenomena was observed”.
